Usually Kb stands for the affinity of an antagonist, worked out from how it opposes an agonist. The term Ki denotes the equilibrium dissociation constant of an inhibitor or competing ligand from its target. Lower therefore signals tighter binding.

This is an account of results in patent US7935719B2, “N-substituted-azacyclylamines as histamine-3 antagonists” (Wyeth LLC, priority 2006, dated 2011).

Each structure is given as a SMILES string. Where a name gives a salt, the structure may show the parent alone.

The target in the first experiment is T1, Histamine Receptor H3 (Homo sapiens, UniProt Q9Y5N1). As to the kind of experiment: Cyclic AMP assay for histamine receptor H3 antagonism activity. In kind it is cell-based. The arrangement: expressed in transfected cells. The settings on record: stable H3 cells, histamine plus 10 μM forskolin, 30 min at 30° C., HitHunter cAMP kit. As to the method: Cyclic Amp Assay for Histamine Receptor H3 Antagonism Activity.
T1 sequence (Q9Y5N1 whole entry): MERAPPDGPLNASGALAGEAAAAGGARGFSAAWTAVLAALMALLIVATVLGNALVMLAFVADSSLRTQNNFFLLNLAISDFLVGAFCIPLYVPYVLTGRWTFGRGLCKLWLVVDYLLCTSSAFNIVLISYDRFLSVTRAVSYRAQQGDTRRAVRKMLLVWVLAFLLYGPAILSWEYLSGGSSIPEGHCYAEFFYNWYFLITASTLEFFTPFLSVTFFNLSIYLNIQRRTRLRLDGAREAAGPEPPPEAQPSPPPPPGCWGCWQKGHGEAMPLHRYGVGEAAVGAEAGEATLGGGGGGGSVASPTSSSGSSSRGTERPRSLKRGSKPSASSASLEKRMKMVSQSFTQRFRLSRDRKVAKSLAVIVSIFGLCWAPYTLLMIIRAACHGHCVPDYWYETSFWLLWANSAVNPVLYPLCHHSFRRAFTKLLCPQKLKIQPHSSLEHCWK
Stable H3 cells are maintained in tissue culture flask in DMEM with high glucose, 10% FBS, 1× pen/strep, 500 ug/ml GY18, until experiment. Culture media is removed and cells are washed twice with PBS w/Ca+2 and Mg+2 plus 500 μM IBMX. Cells are then detached by tapping on the side of the flask and resuspend in the same buffer. Two thousand cells/well are incubated with 1 μM histamine plus 10 μM forskolin plus various concentrations of compounds in a total volume of 30 μL in 96 well plates for 30 min at 30° C. Final test compound concentrations range from 10^-4 M to 10-9.5 M at full log dilutions. Cyclic AMP levels are measured using HitHunter cAMP kit from Discoverx, cat#900041 according to manufacturer's instruction. Chemiluminescence signals are detected using Top Count (Packard). Cyclic AMP levels in control cells receiving 10 μM forskolin plus 100 nM histamine are considered 0%, and in cells receiving 10 uM forskolin plus 100 nM histamine plus 1 μM clobenpropit are considered 100%. Data are expressed as % control and analyzed using Prizm software. The Kb values are calculated using the following equation, KB=EC50 or IC50/[1+(ligand/Kd)].
For the compound `O=C(c1ccc(-n2ccc3cccc(F)c32)cc1)N1CC[C@H](N2CCCC2)C1` [Example 39, (3′S)-1′-[4-(7-fluoro-1H-indol-1-yl)benzoyl]-1,3′-bipyrrolidine], the Kb is less than 0.01 µM. Turning to `Cc1nc2ccccc2n1-c1ccc(C(=O)N2CC[C@H](N3CCC[C@@H]3C)C2)cc1` [Example 22, (2S,3′S)-2-methyl-1′-[4-(2-methyl-1H-benzimidazol-1-yl)benzoyl]-1,3′-bipyrrolidine], the Kb is less than 0.01 µM.

In another experiment the target is T1, Histamine Receptor H3. Description: Methyl histamine binding in human histamine H3 receptor cell line. The arrangement: expressed in transfected cells; host or cells: HEK293T. Conditions: membranes of stably transfected HEK293T cells, radioligand 1 nM, Ki from IC50 by Cheng-Prusoff. How it is done: Evaluation of Methyl Histamine Binding in Human Histamine H3 Receptor Cell Line
The affinity of test compounds for the histamine 3 (H3) receptor is evaluated in the following manner. […] Cells are scraped from the plate, transferred to centrifuge tubes, washed one time in PBS by centrifugation in a Sorvall RT7 Plus centrifuge (2000 rpm 10 minutes, 4° C.). The resulting pellets are stored at −80° C. until ready for use. Cells are re-suspended in buffer (50 mM Tris pH=7.5) and placed in a Dounce homogenizer, douncing ten times to homogenize cells. The homogenate is spun down by centrifugation (Sorvall RT7 Plus, 1800 rpm 10 minutes, 4° C.). The supernatant is placed in a Corex tube and spun down by centrifugation (Sorvall RC 5c Plus, 17,000 rpm 20 minutes, 4° C.). The pellet is resuspended in buffer (50 mM Tris, pH 7.5). Protein concentration (ug/ul) is determined using the Micro-BCA Protein Determination. The binding assay is set up in a 96 well microtiter plate in a total volume of 250 uL. Non-specific binding is determined in the presence of 10 uM clobenpropit. The final radioligand concentration is 1 nM. The test compound is serially diluted using the Beckman Biomek2000 to a final approximate range of 100 uM to 100 pM. Membranes are suspended in buffer, homogenized in 2 bursts of ten seconds using a Vitris mechanical homogenizer set at power setting 5. Ten μg of membranes are added to each well. Following a one hour incubation at 30° C., the reaction is terminated by the addition of ice cold buffer and rapid filtration with a Packard Filtermate Harvester through a GF/B filter pre-soaked with 1% PEI for one hour. The plate is dried for one hour at 37° C. and 60 μL Microscint Scintillant is added to each well. The CPM per well is measured on a Packard Top Count NXT. Ki values are determined in nM. […] CPM values are expressed as % specific binding and plotted vs compound concentration. A curve is fitted using a four-parameter logistic fit and the IC50 value is determined. The Ki is calculated from this using the Cheng-Prusoff equation: […]=IC50/1+(L/Kd) where L=concentration of free radioligand used in the assay, and Kd is the dissociation constant of the radioligand for the receptor. L is determined for each experiment by counting an aliquot of the diluted radioligand (corresponding to that added to each well) and the Kd has previously been determined under identical conditions for this cell line/radioligand.
`O=C(c1ccc(-n2ccc3cccc(F)c32)cc1)N1CC[C@H](N2CCCC2)C1` [Example 39, (3′S)-1′-[4-(7-fluoro-1H-indol-1-yl)benzoyl]-1,3′-bipyrrolidine]: the Ki is less than 0.01 µM. Still for that read-out and setting: next, `Cc1nc2ccccc2n1-c1ccc(C(=O)N2CC[C@H](N3CCN(C)CC3)C2)cc1` [Example 26, 2-methyl-1-(4-{[(3S)-3-(4-methylpiperazin-1-yl)pyrrolidin-1-yl]carbonyl}phenyl)-1H-benzimidazole]: more than 0.1 µM. The same measure, in the same setting: the same measure for `CN1CCN([C@H]2CCN(C(=O)c3ccc(-n4cnc5ccccc54)cc3)C2)CC1` [Example 10, 1-(4-{[(3S)-3-(4-methylpiperazin-1-yl)pyrrolidin-1-yl]carbonyl}phenyl)-1H-benzimidazole]: more than 0.1 µM; for `Cc1nc2ccccc2n1-c1ccc(C(=O)N2CC[C@H](N3CCC[C@@H]3C)C2)cc1` [Example 22, (2S,3′S)-2-methyl-1′-[4-(2-methyl-1H-benzimidazol-1-yl)benzoyl]-1,3′-bipyrrolidine]: less than 0.01 µM; for `Cc1cc2ccccc2n1-c1ccc(C(=O)N2CC[C@H](N3CCCC3)C2)cc1` [Example 38, (3′S)-1′-[4-(2-methyl-1H-indol-1-yl)benzoyl]-1,3′-bipyrrolidine]: less than 0.01 µM. Take `O=C(c1ccc(-n2cc3cc(F)ccc3n2)cc1)N1CC[C@H](N2CCCC2)C1` [Example 45, (3′S)-1′-[4-(5-fluoro-2H-indazol-2-yl)benzoyl]-1,3′-bipyrrolidine]: the Ki is less than 0.01 µM.

Compound `c1ccc2c(c1)ncn2-c1ccc(CN2CC[C@H](N3CCCCC3)C2)cc1` [Example 15, (1-(4-{[(3S)-3-piperidin-1-ylpyrrolidin-1-yl]methyl}phenyl)-1H-benzimidazolefumaric acid salt] yielded a Ki of less than 0.01 µM. On the same count and under the same terms, the same measure for `N#Cc1ccc2c(cnn2-c2ccc(C(=O)N3CC[C@H](N4CCCC4)C3)cc2)c1` [Example 42, 1-{4-[(3′S)-1,3′-bipyrrolidin-1′-ylcarbonyl]phenyl}-1H-indazole-5-carbonitrile]: less than 0.01 µM. In the case of `Cc1nc2ccccc2n1-c1ccc(CN2CC[C@H](N3CCCCCC3)C2)cc1` [Example 18, 1-(4-{[(3S)-3-azepan-1-ylpyrrolidin-1-yl]methyl}phenyl)-2-methyl-1H-benzimidazole], the Ki was less than 0.01 µM. In turn, `Cc1nc2ccccc2n1-c1ccc(C(=O)N2CC[C@H](N3CCCCCC3)C2)cc1` [Example 20, 1-(4-{[(3S)-3-azepan-1-ylpyrrolidin-1-yl]carbonyl}phenyl)-2-methyl-1H-benzimidazole fumaric acid salt] came in with a Ki of less than 0.01 µM. The same measure, in the same setting: next, `Cc1nc2ccccc2n1-c1ccc(C(=O)N2CC[C@H](N3CCCCC3C)C2)cc1` (stereo partly drawn) [Example 23, 2-methyl-1-(4-{[(3S)-3-(2-methylpiperidin-1-yl)pyrrolidin-1-yl]carbonyl}phenyl)-1H-benzimidazole]: less than 0.01 µM; `CC1CCN([C@H]2CCN(C(=O)c3ccc(-n4cnc5ccccc54)cc3)C2)CC1` [Example 9, 1-(4-{[(3S)-3-(4-methylpiperidin-1-yl)pyrrolidin-1-yl]carbonyl}phenyl)-1H-benzimidazole]: more than 0.1 µM; `N#Cc1ccc2c(ccn2-c2ccc(C(=O)N3CC[C@@H](N4CCCC4)C3)cc2)c1` [Example 46, 1-{4-[(3′R)-1,3′-bipyrrolidin-1′-ylcarbonyl]phenyl}-1H-indole-5-carbonitrile]: less than 0.01 µM. With `O=C(c1ccc(-n2ccc3cccc(Cl)c32)cc1)N1CC[C@H](N2CCCC2)C1` [Example 34, (3′S)-1′-[4-(7-chloro-1H-indol-1-yl)benzoyl]-1,3′-bipyrrolidine], the Ki is less than 0.01 µM. The compound `O=C(c1ccc(-n2ncc3ccc(F)cc32)cc1)N1CC[C@H](N2CCCC2)C1` [Example 41, (3′S)-1′-[4-(6-fluoro-1H-indazol-1-yl)benzoyl]-1,3′-bipyrrolidine] registered a Ki of 0.0101 to 0.025 µM.

Compound `O=C(c1ccc(-n2ccc3cc(Br)ccc32)cc1)N1CC[C@H](N2CCCC2)C1` [Example 35, (3′S)-1′-[4-(5-bromo-1H-indol-1-yl)benzoyl]-1,3′-bipyrrolidine] came in with an inhibition constant Ki of less than 0.01 µM. In the case of `O=C(c1ccc(-n2ccc3ccccc32)cc1)N1CC[C@H](N2CCCC2)C1` [Example 30, (3′S)-1′-[4-(1H-indol-1-yl)benzoyl]-1,3′-bipyrrolidine hydrochloride], the Ki is less than 0.01 µM. The same measure, in the same setting: next, `O=C(c1ccc(-n2ncc3cc(F)ccc32)cc1)N1CC[C@H](N2CCCC2)C1` [Example 40, (3′S)-1′-[4-(5-fluoro-1H-indazol-1-yl)benzoyl]-1,3′-bipyrrolidine]: less than 0.01 µM. As to `N#Cc1ccc2c(c1)ncn2-c1ccc(C(=O)N2CC[C@H](N3CCCC3)C2)cc1` [Example 48, 1-{4-[(3′S)-1,3′-bipyrrolidin-1′-ylcarbonyl]phenyl}-1H-benzimidazole-5-carbonitrile fumarate], the inhibition constant (Ki) was 0.0251 to 0.05 µM. On the same count and under the same terms, next, `C[C@@H]1CCCN1[C@H]1CCN(C(=O)c2ccc(-n3cnc4ccccc43)cc2)C1` [Example 6, (2R,3′S)-1′-[4-(1H-benzimidazol-1-yl)benzoyl]-2-methyl-1,3′-bipyrrolidine]: 0.0101 to 0.025 µM; `O=C(c1ccc(-n2cc3ccc(F)cc3n2)cc1)N1CC[C@H](N2CCCC2)C1` [Example 44, (3′S)-1′-[4-(6-fluoro-2H-indazol-2-yl)benzoyl]-1,3′-bipyrrolidine]: less than 0.01 µM.

In the case of `c1ccc2c(c1)ncn2-c1ccc(CN2CC[C@H](N3CCCC3)C2)cc1` [Example 14, (3′S)-1′-[4-(1H-benzimidazol-1-yl)benzyl]-1,3′-bipyrrolidine hydrochloride], the Ki is less than 0.01 µM.

`O=C(c1ccc(-n2ccc3c(Cl)cccc32)cc1)N1CC[C@H](N2CCCC2)C1` [Example 32, (3′S)-1′-[4-(4-chloro-1H-indol-1-yl)benzoyl]-1,3′-bipyrrolidine] showed an inhibition constant (Ki) of less than 0.01 µM. `N#Cc1ccc2nn(-c3ccc(C(=O)N4CC[C@H](N5CCCC5)C4)cc3)cc2c1` [Example 43, 2-{4-[(3′S)-1,3′-bipyrrolidin-1′-ylcarbonyl]phenyl}-2H-indazole-5-carbonitrile]: the Ki is less than 0.01 µM. `CC1CCCCN1[C@H]1CCN(C(=O)c2ccc(-n3cnc4ccccc43)cc2)C1` (stereo partly drawn) [Example 12, 1-(4-{[(3S)-3-(2-methylpiperidin-1-yl)pyrrolidin-1-yl]carbonyl}phenyl)-1H-benzimidazole]: the Ki was in the range of 0.0251 to 0.05 µM. In turn, `CC1CCCN([C@H]2CCN(C(=O)c3ccc(-n4cnc5ccccc54)cc3)C2)C1` (stereo partly drawn) [Example 8, 1-(4-{[(3S)-3-(3-methylpiperidin-1-yl)pyrrolidin-1-yl]carbonyl}phenyl)-1H-benzimidazole] had a Ki of less than 0.01 µM.

`O=C(c1ccc(-n2cnc3ccccc32)cc1)N1CC[C@H](N2CCCCC2)C1` [Example 13, 1-(4-{[(3S)-3-piperidin-1-ylpyrrolidin-1-yl]carbonyl}phenyl)-1H-benzimidazole]: the inhibitory constant (Ki) is less than 0.01 µM. `Cc1nc2ccccc2n1-c1ccc(C(=O)N2CC[C@H](N3CCC(C)CC3)C2)cc1` [Example 25, 2-methyl-1-(4-{[(3S)-3-(4-methylpiperidin-1-yl)pyrrolidin-1-yl]carbonyl}phenyl)-1H-benzimidazole] registered an inhibitory constant (Ki) of 0.0251 to 0.05 µM.

Turning to `Cc1nc2ccccc2n1-c1ccc(CN2CC[C@H](N3CCCC3)C2)cc1` [Example 17, (3′S)-1′-[4-(2-methyl-1H-benzimidazol-1-yl)benzyl]-1,3′-bipyrrolidine], the Ki is less than 0.01 µM.
